According to US9670150B2, “(2-ureidoacetamido)alkyl derivatives as formyl peptide receptor 2 modulators” (Allergan, Inc., priority 2012, dated 2017):
pEC50: −log10 of the molar value. Like-named read-outs stand apart in the source and are kept apart here.

Biological target: T1, FPR2 (Homo sapiens, UniProt P25090)
T1 construct: expressed in transfected cells; host or cells: CHO-Ga16 cells stably expressing FPR2
T1 sequence (P25090 1-351): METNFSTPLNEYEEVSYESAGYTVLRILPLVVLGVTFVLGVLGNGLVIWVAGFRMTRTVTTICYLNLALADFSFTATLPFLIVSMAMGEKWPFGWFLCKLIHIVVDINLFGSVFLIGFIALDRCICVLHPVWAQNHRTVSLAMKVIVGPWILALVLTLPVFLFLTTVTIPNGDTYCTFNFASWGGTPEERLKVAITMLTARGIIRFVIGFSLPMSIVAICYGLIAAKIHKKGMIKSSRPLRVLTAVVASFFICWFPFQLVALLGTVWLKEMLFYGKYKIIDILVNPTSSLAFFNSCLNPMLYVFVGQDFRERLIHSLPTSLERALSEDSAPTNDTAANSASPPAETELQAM
Assay: compound-induced calcium activity on FLIPR Tetra in CHO-Ga16 cells stably expressing FPR2
Type: cell-based
Conditions: for Emax: efficacy value given as a fraction, read-out: FPR2 Ga16-CHO (0.% eff) efficacy
Method: CHO-Ga16 cells stably expressing FPR2 were cultured in (F12, 10% FBS, 1% PSA, 400 μg/ml geneticin and 50 μg/ml hygromycin) and HEK-Gqi5 cells stable expressing FPR2 were cultured in (DMEM high glucose, 10% FBS, 1% PSA, 400 μg/ml geneticin and 50 μg/ml hygromycin). In general, the day before the experiment, 18,000 cells/well were placed in a 384-well clear bottom poly-d-lysine coated plate. The following day the screening compound-induced calcium activity was assayed on the FLIPR^Tetra. The drug plates were prepared in 384-well microplates using the EP3 and the MuItiPROBE robotic liquid handling systems. Compounds were tested at concentrations ranging from 0.61 to 10,000 nM. Results are expressed as EC50 (nM) and efficacy values.

[1] = CHO-Ga16 cells stably expressing FPR2, calcium activity, FLIPR Tetra, concentrations 0.61 to 10,000 nM
[2] = CHO-Ga16 cells stably expressing FPR2

SMILES	pEC50 [1]	Emax [2]	pEC50
CCOP(=O)(CNC(=O)[C@H](CC(C)C)NC(=O)Nc1ccc(Br)cc1)OCC [Compound 1, Diethyl({[(2S)-2-({[(4-bromophenyl)amino]carbonyl}amino)-4-methylpentanoyl]amino}methyl)phosphonate]	9.23	100%	–
CC(C)C[C@H](NC(=O)Nc1ccc(Br)cc1)C(=O)NCc1nnn[nH]1 [Compound 2, (2S)-2-({[(4-Bromophenyl)amino]carbonyl}amino)-4-methyl-N-(1H-tetrazol-5-ylmethyl)pentanamide]	8.64	81%	–
CC(C)C[C@H](NC(=O)Nc1ccc(Br)cc1)C(=O)NCCc1nnn[nH]1 [Compound 3, (2S)-2-({[(4-Bromophenyl)amino]carbonyl}amino)-4-methyl-N-[2-(1H-tetrazol-5-yl)ethyl]pentanamide]	7.32	100%	–
CC(C)C[C@H](NC(=O)Nc1ccc(Br)cc1)C(=O)NCc1cc(O)no1 [Compound 4, (2S)-2-({[(4-Bromophenyl)amino]carbonyl}amino)-N-[(3-hydroxyisoxazol-5-yl)methyl]-4-methylpentanamide]	7.92	100%	–
CCOP(=O)(CNC(=O)[C@@H](NC(=O)Nc1ccc(Br)cc1)[C@@H](C)CC)OCC [Compound 5, Diethyl ({[(2S,3S)-2-({[(4-bromophenyl)amino]carbonyl}amino)-3-methylpentanoyl]amino}methyl)phosphonate]	8.62	100%	–
CCC[C@H](NC(=O)Nc1ccc(Br)cc1)C(=O)NCP(=O)(OCC)OCC [Compound 6, Diethyl ({[(2S)-2-({[(4-bromophenyl)amino]carbonyl}amino)pentanoyl]amino}methyl)phosphonate]	9.54	94%	–
CCOP(=O)(CNC(=O)[C@H](Cc1ccccc1)NC(=O)Nc1ccc(Br)cc1)OCC [Compound 7, Diethyl ({[(2S)-2-({[(4-bromophenyl)amino]carbonyl}amino)-3-phenylpropanoyl]amino}methyl)phosphonate]	7.70	98%	–
CCOP(=O)(CCNC(=O)[C@H](CC(C)C)NC(=O)Nc1ccc(Br)cc1)OCC [Compound 8, Diethyl (2-{[(2S)-2-({[(4-bromophenyl)amino]carbonyl}amino)-4-methylpentanoyl]amino}ethyl)phosphonate]	8.74	100%	–
CCC[C@H](NC(=O)Nc1ccc(Br)cc1)C(=O)NCP(=O)(OC(C)C)OC(C)C [Compound 9, Diisopropyl ({[(2S)-2-({[(4-bromophenyl)amino]carbonyl}amino)pentanoyl]amino}methyl)phosphonate]	9.10	94%	–
CC(C)C[C@H](NC(=O)Nc1ccc(Br)cc1)C(=O)NCP(=O)(OC(C)C)OC(C)C [Compound 10, Diisopropyl ({[2-({[(4-bromophenyl)amino]carbonyl}amino)-4-methylpentanoyl]amino}methyl)phosphonate]	8.40	100%	–
CCOP(=O)(CNC(=O)[C@H](CC(C)C)NC(=O)Nc1ccc(C(F)(F)F)cc1)OCC [Compound 11, Diethyl [({(2S)-4-methyl-2-[({[4-(trifluoromethyl)phenyl]amino}carbonyl)amino]pentanoyl}amino)methyl]phosphonate]	8.10	100%	–
CC(C)C[C@H](NC(=O)Nc1ccc(C(F)(F)F)cc1)C(=O)NCc1nnn[nH]1 [Compound 12, (2S)-4-methyl-N-(1H-tetrazol-5-ylmethyl)-2-[({[4-(trifluoromethyl)phenyl]amino}carbonyl)amino]pentanamide]	8.40	91%	–
CC(C)C[C@H](NC(=O)Nc1ccc(C(F)(F)F)cc1)C(=O)NCS(=O)(=O)O [Compound 13, ({(2S)-4-methyl-2-[({[4-(trifluoromethyl)phenyl]amino}carbonyl)amino]pentanoyl}amino)methanesulfonic acid]	8.80	100%	–
CCOP(=O)(CNC(=O)[C@H](CC(C)C)NC(=O)Nc1ccc(SC)cc1)OCC [Compound 14, Diethyl [({(2S)-4-methyl-2-[({[4-(methylthio)phenyl]amino}carbonyl)amino]pentanoyl}amino)methyl]phosphonate]	8.68	90%	–
CCOP(=O)(O)CNC(=O)[C@H](CC(C)C)NC(=O)Nc1ccc(Br)cc1 [Compound 15, Ethyl hydrogen({[(2S)-2-({[(4-bromophenyl)amino]carbonyl}amino)-4-methylpentanoyl]amino}methyl)phosphonate]	–	88%	9.02
CCOP(=O)(O)CNC(=O)[C@@H](NC(=O)Nc1ccc(Br)cc1)[C@@H](C)CC [Compound 16, Ethyl hydrogen ({[(2S,3S)-2-({[(4-bromophenyl)amino]carbonyl}amino)-3-methylpentanoyl]amino}methyl)phosphonate]	8.49	88%	–
CCC[C@H](NC(=O)Nc1ccc(Br)cc1)C(=O)NCP(=O)(O)OCC [Compound 17, Ethyl hydrogen ({[(2S)-2-({[(4-bromophenyl)amino]carbonyl}amino)pentanoyl]amino}methyl)phosphonate]	–	94%	9.00
CCOP(=O)(O)CNC(=O)[C@H](Cc1ccccc1)NC(=O)Nc1ccc(Br)cc1 [Compound 18, Ethyl hydrogen ({[(2S)-2-({[(4-bromophenyl)amino]carbonyl}amino)-3-phenylpropanoyl]amino}methyl)phosphonate]	–	110%	7.80
CCCC(NC(=O)Nc1ccc(Br)cc1)C(=O)NCP(=O)(O)OC(C)C (centres unmarked) [Compound 19, Iso-propyl hydrogen ({[2-({[(4-bromophenyl)amino]carbonyl}amino)pentanoyl]amino}methyl)phosphonate]	8.73	89%	–
CCOP(=O)(O)CNC(=O)[C@H](CC(C)C)NC(=O)Nc1ccc(C(F)(F)F)cc1 [Compound 20, Ethyl hydrogen [({(2S)-4-methyl-2-[({[4-(trifluoromethyl)phenyl]amino}carbonyl)amino]pentanoyl}amino)methyl]phosphonate]	8.70	95%	–
CCOP(=O)(O)CNC(=O)[C@H](CC(C)C)NC(=O)Nc1ccc(S(C)(=O)=O)cc1 [Compound 21, ethyl hydrogen [({(2S)-4-methyl-2-[({[4-(methylsulfonyl)phenyl]amino}carbonyl)amino]pentanoyl}amino)methyl]phosphonate]	6.88	99%	–
CCC[C@H](NC(=O)Nc1ccc(Br)cc1)C(=O)NCP(=O)(O)O [Compound 22, ({[(2S)-2-({[(4-bromophenyl)amino]carbonyl}amino)pentanoyl]amino}methyl)phosphonic acid]	7.49	94%	–
CC(C)C[C@H](NC(=O)Nc1ccc(C(F)(F)F)cc1)C(=O)NCP(=O)(O)O [Compound 23, [({(2S)-4-methyl-2-[({[4-(trifluoromethyl)phenyl]amino}carbonyl)amino]pentanoyl}amino)methyl]phosphonic acid]	7.19	102%	–
CCOP(=O)(CNC(=O)[C@H](CC(C)C)NC(=O)Nc1ccc(S(C)(=O)=O)cc1)OCC [Compound 24, Diethyl[({(2S)-4-methyl-2-[({[4-(methylsulfonyl)phenyl]amino}carbonyl)amino]pentanoyl}amino)methyl]phosphonate]	7.35	112%	–
CC(C)C[C@H](NC(=O)Nc1ccc(Br)cc1)C(=O)NCS(=O)(=O)O [{[(2S)-2-{[(4-Bromophenyl)carbamoyl]amino}-4-methylpentanoyl]amino}methanesulfonic acid]	8.64	91%	–
